Source: ChEMBL document CHEMBL1201862, “PubChem BioAssay data set” (2004)
Values joined by “and” are separate entries in the source; they are usually repeats but may differ in a detail not shown here. Identical values can stand only once.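 Results reflect a 48-hour exposure of cells in 96-well plates to compound at five concentrations. GI50 marks 50% less growth.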 Active and inactive are the calls of the source. Cut-off read from the data, not from the text of the source: active = GI50 up to about 1.1 µM and inactive = higher.

Assays:
Test in all cases: NCI anticancer screen, dose series, 48 h
IGROV-1 = test system: IGROV-1
HCC 2998 = test system: HCC 2998
MDA-MB-231 = test system: MDA-MB-231
EKVX = test system: EKVX
SN12C = test system: SN12C
NCI-H23 = test system: NCI-H23
UACC-257 = test system: UACC-257
UACC-62 = test system: UACC-62
PC-3 = test system: PC-3
OVCAR-5 = test system: OVCAR-5
U-251 = test system: U-251
786-0 = test system: 786-0
SW-620 = test system: SW-620
HOP-92 = test system: HOP-92
MDA-N = test system: MDA-N
NCI/ADR-RES = test system: NCI/ADR-RES
CCRF-CEM = test system: CCRF-CEM
SK-MEL-2 = test system: SK-MEL-2
DU-145 = test system: DU-145
SK-OV-3 = test system: SK-OV-3
MCF7 = test system: MCF7
Hs-578T = test system: Hs-578T
M14 = test system: M14
SNB-19 = test system: SNB-19
Malme-3M = test system: Malme-3M
SF-268 = test system: SF-268
RXF 393 = test system: RXF 393
HT-29 = test system: HT-29
OVCAR-3 = test system: OVCAR-3
NCI-H522 = test system: NCI-H522
HCT-116 = test system: HCT-116
HL-60 = test system: HL-60
ACHN = test system: ACHN
MOLT-4 = test system: MOLT-4
SF-295 = test system: SF-295
LOX IMVI = test system: LOX IMVI
HCT-15 = test system: HCT-15
COLO 205 = test system: COLO 205
A549 = test system: A549
KM12 = test system: KM12
TK-10 = test system: TK-10
T47D = test system: T47D
OVCAR-4 = test system: OVCAR-4
MDA-MB-435 = test system: MDA-MB-435
A498 = test system: A498
NCI-H460 = test system: NCI-H460
BT-549 = test system: BT-549
OVCAR-8 = test system: OVCAR-8
HOP-62 = test system: HOP-62
SK-MEL-5 = test system: SK-MEL-5
RPMI-8226 = test system: RPMI-8226
SK-MEL-28 = test system: SK-MEL-28
CAKI-1 = test system: CAKI-1
SF-539 = test system: SF-539
NCI-H226 = test system: NCI-H226
K562 = test system: K562
UO-31 = test system: UO-31
SNB-75 = test system: SNB-75
SR = test system: SR

Measured: GI50

CC(=O)NC1C(Sc2ncn(C3OC(CO)C(O)C(O)C3NC(C)=O)n2)OC(CO)C(O)C1O (stereo not given)
inactive: IGROV-1 > 100 µM | HCC 2998 > 100 µM | MDA-MB-231 > 100 µM | EKVX > 100 µM | SN12C > 100 µM | NCI-H23 > 100 µM | UACC-257 > 100 µM | UACC-62 > 100 µM | PC-3 > 100 µM | OVCAR-5 > 100 µM | U-251 > 100 µM | 786-0 > 100 µM | SW-620 > 100 µM | HOP-92 > 100 µM | MDA-N > 100 µM | NCI/ADR-RES > 100 µM | CCRF-CEM 29 µM | SK-MEL-2 > 100 µM | DU-145 > 100 µM | SK-OV-3 > 100 µM | MCF7 > 100 µM | Hs-578T > 100 µM | M14 > 100 µM | SNB-19 > 100 µM | Malme-3M > 100 µM | SF-268 > 100 µM | RXF 393 > 100 µM | HT-29 > 100 µM | OVCAR-3 > 100 µM | NCI-H522 > 100 µM | HCT-116 > 100 µM | HL-60 > 100 µM | ACHN > 100 µM | MOLT-4 > 100 µM | SF-295 > 100 µM | LOX IMVI > 100 µM | COLO 205 > 100 µM | A549 > 100 µM | KM12 > 100 µM | TK-10 > 100 µM | T47D > 100 µM | OVCAR-4 > 100 µM | MDA-MB-435 > 100 µM | A498 > 100 µM | NCI-H460 > 100 µM | BT-549 > 100 µM | OVCAR-8 > 100 µM | HOP-62 > 100 µM | SK-MEL-5 > 100 µM | RPMI-8226 > 100 µM | SK-MEL-28 > 100 µM | CAKI-1 > 100 µM | SF-539 > 100 µM
> 100 µM: HCT-15

O=[N+]([O-])c1ccc(C2c3c(O)nc(S)nc3Oc3nc(S)nc(O)c32)cc1
> 100 µM: HCT-15
inactive: IGROV-1 > 100 µM | MDA-MB-231 > 100 µM | EKVX > 100 µM | SN12C > 100 µM | NCI-H23 > 100 µM | UACC-257 > 100 µM | UACC-62 > 100 µM | PC-3 > 100 µM | OVCAR-5 > 100 µM | U-251 > 100 µM | 786-0 > 100 µM | SW-620 > 100 µM | HOP-92 > 100 µM | MDA-N > 100 µM | NCI/ADR-RES > 100 µM | CCRF-CEM > 100 µM | NCI-H226 > 100 µM | SK-MEL-2 > 100 µM | DU-145 > 100 µM | MCF7 > 100 µM | Hs-578T > 100 µM | M14 > 100 µM | SNB-19 > 100 µM | RXF 393 > 100 µM | K562 > 100 µM | HT-29 > 100 µM | OVCAR-3 > 100 µM | NCI-H522 > 100 µM | UO-31 > 100 µM | HCT-116 > 100 µM | HL-60 > 100 µM | ACHN > 100 µM | MOLT-4 > 100 µM | SF-295 > 100 µM | LOX IMVI > 100 µM | COLO 205 > 100 µM | A549 > 100 µM | KM12 > 100 µM | TK-10 > 100 µM | T47D > 100 µM | OVCAR-4 > 100 µM | MDA-MB-435 > 100 µM | A498 > 100 µM | NCI-H460 > 100 µM | BT-549 > 100 µM | OVCAR-8 > 100 µM | HOP-62 > 100 µM | SK-MEL-5 > 100 µM | RPMI-8226 > 100 µM | SK-MEL-28 > 100 µM | CAKI-1 > 100 µM

c1ccc2[nH]c(-c3cscn3)nc2c1 [THIABENDAZOLE]
inactive: IGROV-1 > 100 µM | HCC 2998 > 100 µM | MDA-MB-231 > 100 µM | EKVX > 100 µM | SN12C > 100 µM | NCI-H23 > 100 µM | UACC-257 > 100 µM | UACC-62 > 100 µM | PC-3 > 100 µM | SNB-75 > 100 µM | OVCAR-5 > 100 µM | U-251 > 100 µM | 786-0 > 100 µM | SW-620 > 100 µM | HOP-92 > 100 µM | MDA-N 50.4 µM | NCI/ADR-RES > 100 µM | CCRF-CEM > 100 µM | NCI-H226 > 100 µM | SK-MEL-2 > 100 µM | DU-145 > 100 µM | SK-OV-3 > 100 µM | MCF7 > 100 µM | Hs-578T > 100 µM | M14 > 100 µM | SNB-19 > 100 µM | Malme-3M > 100 µM | SF-268 > 100 µM | K562 > 100 µM and 83.6 µM | HT-29 > 100 µM and 77.1 µM | OVCAR-3 > 100 µM | NCI-H522 > 100 µM | HCT-116 > 100 µM | HL-60 > 100 µM | ACHN > 100 µM | MOLT-4 > 100 µM | SF-295 > 100 µM | LOX IMVI > 100 µM | COLO 205 > 100 µM | A549 > 100 µM | KM12 > 100 µM | TK-10 > 100 µM | T47D > 100 µM | OVCAR-4 > 100 µM | MDA-MB-435 74.3 µM and 44.4 µM | A498 > 100 µM | NCI-H460 > 100 µM and 54 µM | BT-549 > 100 µM | OVCAR-8 > 100 µM | SK-MEL-5 > 100 µM | SK-MEL-28 > 100 µM | SF-539 > 100 µM
> 100 µM: HCT-15

C/C(=N\NC(=S)NC(C)C)c1nc2cccnc2[nH]1
active: T47D 0.33 µM
inactive: IGROV-1 19.8 µM | HCC 2998 19.4 µM | MDA-MB-231 > 26.7 µM | EKVX 13.5 µM | SN12C > 56.5 µM | UACC-257 34.6 µM | UACC-62 29.8 µM | PC-3 27.9 µM | SNB-75 28.1 µM | OVCAR-5 28.8 µM | U-251 21.3 µM | 786-0 20.3 µM | SW-620 12.1 µM | HOP-92 39.9 µM | MDA-N > 100 µM | NCI/ADR-RES 40.5 µM | CCRF-CEM 2.88 µM | NCI-H226 9.25 µM | SK-MEL-2 18.7 µM | DU-145 51.1 µM | SK-OV-3 12.7 µM | SR 11.7 µM | MCF7 21.9 µM | Hs-578T 23.9 µM | M14 57.9 µM | SNB-19 30.9 µM | Malme-3M 33.9 µM | SF-268 14.8 µM | RXF 393 33.8 µM | K562 4.48 µM | HT-29 12.8 µM | OVCAR-3 6.62 µM | NCI-H522 13.8 µM | UO-31 3.78 µM | HCT-116 11.3 µM | HL-60 8.93 µM | ACHN 21.9 µM | MOLT-4 9.95 µM | SF-295 12 µM | LOX IMVI 30.2 µM | COLO 205 11 µM | A549 31.5 µM | KM12 65.8 µM | TK-10 21.3 µM | OVCAR-4 6.15 µM | A498 > 47.6 µM | NCI-H460 14 µM | BT-549 15.5 µM | OVCAR-8 7.98 µM | HOP-62 18 µM | SK-MEL-5 13.1 µM | RPMI-8226 > 100 µM | SK-MEL-28 > 100 µM | CAKI-1 18.2 µM | SF-539 > 37.9 µM
11.3 µM: HCT-15

O=C1CCC(=O)N1CNc1ccc2c(c1)Sc1ccccc1O2
28.4 µM: HCT-15
inactive: IGROV-1 38.9 µM | MDA-MB-231 41.9 µM | EKVX 22 µM | SN12C 27.6 µM | NCI-H23 38.5 µM | UACC-257 46.7 µM | UACC-62 48.9 µM | PC-3 32 µM | OVCAR-5 43.9 µM | U-251 30.3 µM | 786-0 23.6 µM | SW-620 27.9 µM | HOP-92 21.5 µM | MDA-N 30.2 µM | NCI/ADR-RES 42.9 µM | CCRF-CEM 29 µM | NCI-H226 20.4 µM | SK-MEL-2 18.1 µM | DU-145 32.5 µM | MCF7 43.1 µM | Hs-578T 44.7 µM | M14 27.2 µM | SNB-19 67.3 µM | Malme-3M 58.6 µM | SF-268 44.8 µM | RXF 393 22.5 µM | K562 49.8 µM | HT-29 23.5 µM | OVCAR-3 26.5 µM | NCI-H522 23.8 µM | UO-31 23.2 µM | HCT-116 21.3 µM | HL-60 4.99 µM | ACHN 47 µM | MOLT-4 61.7 µM | SF-295 29.4 µM | LOX IMVI 27.3 µM | COLO 205 18 µM | A549 33 µM | KM12 36.7 µM | TK-10 38 µM | T47D 25.2 µM | OVCAR-4 33.7 µM | MDA-MB-435 31.9 µM | A498 53 µM | BT-549 26.6 µM | OVCAR-8 25.9 µM | HOP-62 43.7 µM | SK-MEL-5 26.4 µM | RPMI-8226 33.9 µM | SK-MEL-28 87.3 µM | CAKI-1 32.7 µM | SF-539 15.6 µM
